*1 amine or outer side, *2 acyl side, *3 side chain or, on linkers, in order; H or OH if unused. Where a SMILES comes first, the peptide text is derived from it. Side-chain parts run from the residue outwards. [ ]: non-standard residue; d: D form. The star is where a group is joined. C18 diacid = O=C(O)CCCCCCCCCCCCCCCCC(=O)*; γGlu = O=C(O)[C@H](CCC(=O)[*:2])N[*:1]; Desaminohistidyl = O=C(CCc1c[nH]cn1)*; AEEA = NCCOCCOCC(=O)O; Aib = CC(C)(N)C(=O)O
The compounds below were run against T1, human glucagon receptor (Homo sapiens, UniProt P47871) (assay: Assay (II)(b): glucagon receptor binding, [125I]-glucagon displacement, SPA on BHK membranes). Conditions: displacement of [125I]-glucagon, membranes with human glucagon receptor; read-out: IC50 GlucagonR.
T1 construct: expressed in transfected cells; host or cells: membranes of BHK cells, clone BHK hGCGR A3*25
T1 sequence (P47871 26-477): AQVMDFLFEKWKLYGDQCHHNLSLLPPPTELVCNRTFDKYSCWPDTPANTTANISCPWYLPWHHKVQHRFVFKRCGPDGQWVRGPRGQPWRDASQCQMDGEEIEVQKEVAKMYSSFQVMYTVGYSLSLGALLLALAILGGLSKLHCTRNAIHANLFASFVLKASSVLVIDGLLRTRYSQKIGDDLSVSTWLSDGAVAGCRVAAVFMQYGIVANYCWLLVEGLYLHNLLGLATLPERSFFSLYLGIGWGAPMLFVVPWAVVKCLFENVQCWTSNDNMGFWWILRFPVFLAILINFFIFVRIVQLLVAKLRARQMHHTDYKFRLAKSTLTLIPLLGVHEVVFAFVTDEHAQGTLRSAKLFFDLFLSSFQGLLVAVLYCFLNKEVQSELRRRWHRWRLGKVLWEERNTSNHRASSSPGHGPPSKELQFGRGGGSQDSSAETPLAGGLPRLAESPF
Experimental: Assay (II): GLP-1 and Glucagon Receptor Binding The purpose of this assay is to test the in vitro receptor binding activity of the GLP-1 derivatives of the invention. (b) Glucagon Receptor Binding The glucagon receptor (glucagonR) binding activity is a measure of affinity of a derivative for the human glucagon receptor. The glucagon receptor binding of each derivative were determined with competitive binding, displacing [^125I]-glucagon bound to glucagon receptors expressed in cell membranes associated with wheat germ agglutinin (WGA) scintillation proximity assay (SPA) beads. Each derivative was added in a series of concentrations to isolated membranes comprising the human glucagon receptor and displacement of the labelled ligand was monitored. The receptor binding was reported as the concentration at which half of the labelled ligand is displaced from the receptor, the IC^50 value. The following chemicals were used in the assay: DMEM w Glutamax (Gibco 61965-026), Pen/strep (Invitrogen 15140-122), G418 (Invitrogen 10131-027), Versene (Gibco 15040), 1 M Hepes (Gibco 15630), PBS (Invitrogen 14190-094), fetal calf serum (Invitrogen 16140-071), MgCl2 (Merck 1.05832.1000), EDTA (Invitrogen 15575-038), CaCl2 (Sigma, C5080), Tween 20 (Amresco 0850C335), ovalbumin (Sigma A5503), SPA particles (wheat germ agglutinin (WGA) SPA beads, Perkin Elmer RPNQ0001), [125I]-glucagon (produced in-house), OptiPlate™-96 (Packard 6005290). HME buffer consisted of 25 mM HEPES, 2 mM MgCl2 and 1 mM EDTA, and pH was adjusted to 7.4. Assay buffer consisted of 50 mM HEPES supplemented with 5 mM MgCl2, 1 mM CaCl2, 0.02% Tween 20 and 0.1% Ovalbumin, and pH was adjusted to 7.4. The cells used in this assay (clone BHK hGCGR A3*25) were BHK cells stable transfected with an expression plasmid comprising the cDNA encoding the human glucagon receptor. The cells were grown at 5% CO2 in DMEM, 10% fetal calf serum, 1% Pen/Strep (Penicillin/Streptomycin) and 1.0 mg/ml of the selection marker G418. To make a membrane preparation the cells were grown to approximately 80% confluence. The cells were washed twice in phosphate-buffered saline and harvested. The cells were pelleted using a brief centrifugation and the cell pellet was kept on ice. Lyse the cells by adding approx. 5 ml HME buffer, mix by pipetting and snap freeze in liquid nitrogen. Thaw quickly and add HME buffer to 10 ml. The cell pellet was homogenised with an ULTRA-THURRAX dispersing instrument for 20-30 seconds. The homogenate was centrifuged at 20.000×G, 4° C. for 10 minutes. The pellet was resuspended (homogenised) in 1-2 ml HME buffer. The protein concentration was determined. The membranes were aliquoted and snapfrozen in liquid nitrogen and stored at minus 80° C. • 1. For the receptor binding assay 50 μl of the assay buffer was added to each well of an assay plate. • 2. Test compounds were serially diluted to give the following concentrations: 8×10EE-7 M, 8×10EE-8 M, 8×10EE-9 M, 8×10EE-10 M, 8×10EE-11 M, 8×10EE-12 M and 8×10EE-13 M. Twenty-five μl were added to appropriate wells in the assay plate. • 3. Cell membrane aliquots were thawed and diluted to their working concentration. Fifty μl were added to each well in the assay plate. • 4. WGA SPA beads were suspended in assay buffer at 20 mg/ml. The suspension was diluted to 10 mg/ml in assay buffer just prior to addition to the assay plate. Fifty μl were added to each well in the assay plate. • 5. The incubation was started by adding 25 μl of 480 pM solution of [125I]-glucagon to each well of the assay plate. A 25 μl aliquot was reserved for measuring total counts/well. • 6. The assay plate was incubated for 2 h at 25° C. • 7. The assay plate was centrifuged for 10 min at 1500 rpm. • 8. The assay plate was read in a Perkin Elmer TopCount NXT instrument. Calculations The data from the TopCount instrument were transferred to GraphPad Prism software. The software averaged the values for the replicates and performed a non-linear regression. […]

Structure (SMILES)	IC50 [nM]
CC[C@H](C)[C@H](NC(=O)[C@H](Cc1ccccc1)NC(=O)[C@H](CCC(=O)O)NC(=O)[C@H](CCCNC(=N)N)NC(=O)[C@H](C)NC(=O)[C@H](C)NC(=O)[C@H](CCCNC(=N)N)NC(=O)CNC(=O)[C@H](CCC(=O)O)NC(=O)[C@H](CC(C)C)NC(=O)[C@H](Cc1ccc(O)cc1)NC(=O)[C@H](CCCNC(=N)N)NC(=O)[C@H](CO)NC(=O)[C@@H](NC(=O)[C@H](CC(=O)O)NC(=O)[C@H](CO)NC(=O)[C@@H](NC(=O)[C@H](Cc1ccccc1)NC(=O)[C@@H](NC(=O)CNC(=O)[C@H](Cc1c[nH]cn1)NC(=O)C(C)(C)NC(=O)CCc1c[nH]cn1)[C@@H](C)O)[C@@H](C)O)C(C)C)C(=O)N[C@@H](C)C(=O)N[C@@H](Cc1c[nH]c2ccccc12)C(=O)N[C@@H](CC(C)C)C(=O)N[C@@H](CC(C)C)C(=O)N[C@@H](CCCCNC(=O)CC[C@H](NC(=O)CC[C@H](NC(=O)COCCOCCNC(=O)CC[C@H](NC(=O)CC[C@H](NC(=O)CCCCCCCCCCCCCCCCC(=O)O)C(=O)O)C(=O)O)C(=O)O)C(=O)O)C(=O)NCC(=O)N[C@@H](C)C(=O)NCC(=O)O [Example 35, N^ε34-[(4S)-4-carboxy-4-[[(4S)-4-carboxy-4-[[2-[2-[2-[[(4S)-4-carboxy-4-[[(4S)-4-carboxy-4-(17-carboxyheptadecanoylamino)butanoyl]amino]butanoyl]amino]ethoxy]ethoxy]acetyl]amino]butanoyl]amino]butanoyl]-[Imp7,Aib8,His9,Arg18,Arg23,Arg26,Leu33,Ala36]-GLP-1-(7-37)-peptide] (Desaminohistidyl-[Aib]HGTFTSDVSRYLEGRAAREFIAWLLK([γGlu-γGlu-AEEA-γGlu-γGlu-C18 diacid])GAG-OH)	18.8
CC[C@H](C)[C@H](NC(=O)[C@H](Cc1ccccc1)NC(=O)[C@H](CCC(=O)O)NC(=O)[C@H](CCCNC(=N)N)NC(=O)[C@H](C)NC(=O)[C@H](C)NC(=O)[C@H](CCC(N)=O)NC(=O)[C@H](CCC(=O)O)NC(=O)[C@H](CCC(=O)O)NC(=O)[C@H](CC(C)C)NC(=O)[C@H](Cc1ccc(O)cc1)NC(=O)[C@H](CCCCN)NC(=O)[C@H](CO)NC(=O)[C@@H](NC(=O)[C@H](CC(=O)O)NC(=O)[C@H](CO)NC(=O)[C@@H](NC(=O)[C@H](Cc1ccccc1)NC(=O)[C@@H](NC(=O)CNC(=O)[C@H](Cc1c[nH]cn1)NC(=O)C(C)(C)NC(=O)CCc1c[nH]cn1)[C@@H](C)O)[C@@H](C)O)C(C)C)C(=O)N[C@@H](C)C(=O)N[C@@H](Cc1c[nH]c2ccccc12)C(=O)N[C@@H](CC(C)C)C(=O)N[C@@H](CC(C)C)C(=O)N[C@@H](CCCCNC(=O)COCCOCCNC(=O)COCCOCCNC(=O)CC[C@H](NC(=O)CC[C@H](NC(=O)CCCCCCCCCCCCCCCCC(=O)O)C(=O)O)C(=O)O)C(=O)N[C@H](C(N)=O)[C@@H](C)O [Example 5, N^ε34-[2-[2-[2-[[2-[2-[2-[[(4S)-4-carboxy-4-[[(4S)-4-carboxy-4-(17-carboxyheptadecanoylamino)butanoyl]amino]butanoyl]amino]ethoxy]ethoxy]acetyl]amino]ethoxy]ethoxy]acetyl]-[Imp7,Aib8,His9,Lys18,Glu22,Arg26,Leu33,Thr35]-GLP-1-(7-35)-peptide amide] (Desaminohistidyl-[Aib]HGTFTSDVSKYLEEQAAREFIAWLLK([AEEA-AEEA-γGlu-γGlu-C18 diacid])T-NH2)	4.3
CC[C@H](C)[C@H](NC(=O)[C@H](Cc1ccccc1)NC(=O)[C@H](CCC(=O)O)NC(=O)[C@H](CCCNC(=N)N)NC(=O)[C@H](C)NC(=O)[C@H](C)NC(=O)[C@H](CCC(N)=O)NC(=O)[C@H](CCC(=O)O)NC(=O)[C@H](CCC(=O)O)NC(=O)[C@H](CC(C)C)NC(=O)[C@H](Cc1ccc(O)cc1)NC(=O)[C@H](CCCCN)NC(=O)[C@H](CO)NC(=O)[C@@H](NC(=O)[C@H](CC(=O)O)NC(=O)[C@H](CO)NC(=O)[C@@H](NC(=O)[C@H](Cc1ccccc1)NC(=O)[C@@H](NC(=O)CNC(=O)[C@H](Cc1c[nH]cn1)NC(=O)C(C)(C)NC(=O)CCc1c[nH]cn1)[C@@H](C)O)[C@@H](C)O)C(C)C)C(=O)N[C@@H](C)C(=O)N[C@@H](Cc1c[nH]c2ccccc12)C(=O)N[C@@H](CC(C)C)C(=O)N[C@@H](CC(C)C)C(=O)N[C@@H](CCCCNC(=O)CNC(=O)[C@H](CO)NC(=O)CC[C@H](NC(=O)CC[C@H](NC(=O)CCCCCCCCCCCCCCCCC(=O)O)C(=O)O)C(=O)O)C(=O)N[C@H](C(N)=O)[C@@H](C)O [Example 4, N^ε34-[2-[[(2S)-2-[[(4S)-4-carboxy-4-[[(4S)-4-carboxy-4-(17-carboxyheptadecanoylamino)butanoyl]amino]butanoyl]amino]-3-hydroxypropanoyl]amino]acetyl]-[Imp7,Aib8,His9,Lys18,Glu22,Arg26,Leu33,Thr35]-GLP-1-(7-35)-peptide amide] (Desaminohistidyl-[Aib]HGTFTSDVSKYLEEQAAREFIAWLLK([Gly-Ser-γGlu-γGlu-C18 diacid])T-NH2)	4.3
CC[C@H](C)[C@H](NC(=O)[C@H](Cc1ccccc1)NC(=O)[C@H](CCC(=O)O)NC(=O)[C@H](CCCNC(=N)N)NC(=O)[C@H](C)NC(=O)[C@H](C)NC(=O)[C@H](CCCNC(=N)N)NC(=O)[C@H](C)NC(=O)[C@H](CCC(=O)O)NC(=O)[C@H](CC(C)C)NC(=O)[C@H](Cc1ccc(O)cc1)NC(=O)[C@H](CCCCN)NC(=O)[C@H](CO)NC(=O)[C@@H](NC(=O)[C@H](CC(=O)O)NC(=O)[C@H](CO)NC(=O)[C@@H](NC(=O)[C@H](Cc1ccccc1)NC(=O)[C@@H](NC(=O)CNC(=O)[C@H](Cc1c[nH]cn1)NC(=O)C(C)(C)NC(=O)CCc1c[nH]cn1)[C@@H](C)O)[C@@H](C)O)C(C)C)C(=O)N[C@@H](C)C(=O)N[C@@H](Cc1c[nH]c2ccccc12)C(=O)N[C@@H](CC(C)C)C(=O)N[C@@H](CC(C)C)C(=O)N[C@@H](CCCCNC(=O)CC[C@H](NC(=O)COCCOCCNC(=O)COCCOCCNC(=O)CC[C@H](NC(=O)CC[C@H](NC(=O)CCCCCCCCCCCCCCCCC(=O)O)C(=O)O)C(=O)O)C(=O)O)C(=O)NCC(=O)NCC(=O)NCC(=O)O [Example 31, N^ε34-[(4S)-4-carboxy-4-[[2-[2-[2-[[2-[2-[2-[[(4S)-4-carboxy-4-[[(4S)-4-carboxy-4-(17-carboxyheptadecanoylamino)butanoyl]amino]butanoyl]amino]ethoxy]ethoxy]acetyl]amino]ethoxy]ethoxy]acetyl]amino]butanoyl]-[Imp7,Aib8,His9,Lys18,Ala22,Arg23,Arg26,Leu33,Gly36]-GLP-1-(7-37)-peptide] (Desaminohistidyl-[Aib]HGTFTSDVSKYLEARAAREFIAWLLK([γGlu-AEEA-AEEA-γGlu-γGlu-C18 diacid])GGG-OH)	3.7
